Where a SMILES comes first, the peptide text is derived from it. Bridges are numbered along the chain shown (N, C = ends). [ ]: non-standard residue; d: D form. The star is where a group is joined. ξ: configuration not given here. Butanoyl(3ξ-OH) = CC(O)CC(=O)*; Thr(3ξ) = CC(O)[C@H](N)C(=O)O; Dab = NCC[C@H](N)C(=O)O
Legend:
E. coli ATCC25922 = experiment: MIC susceptibility testing, broth microdilution in CaMHB; type: cell-based, Escherichia coli; conditions: Table 4A, different batches of cation-adjusted Muller-Hinton broth
Method in brief: (§1)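 Assays used cation-adjusted Mueller-Hinton broth, run in duplicate. Bacteria were taken from an overnight culture (37° C, 250 rpm, 18-20 hours), diluted 100-fold, grown to OD600 0.2-0.3, then diluted 100-fold again for inoculation.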

P. aeruginosa ATCC27853 = experiment: as above; type: cell-based, Pseudomonas aeruginosa; conditions: Table 4A, different batches of cation-adjusted Muller-Hinton broth
Method in brief: as §1

K. pneumoniae ATCC 4352 = experiment: as above; type: cell-based, Klebsiella pneumoniae; conditions: K. pneumoniae ATCC4352; Table 4A, different batches of cation-adjusted Muller-Hinton broth
Method in brief: as §1

A. baumannii ATCC19606 = experiment: as above; type: cell-based, Acinetobacter baumannii; conditions: Table 4A, different batches of cation-adjusted Muller-Hinton broth
Method in brief: as §1

HK-2 cell line = conditions: 24 h incubation, resazurin reduction; Table 7A; footnote c: solubility issues noted at top concentration
Method: The renal cell toxicity of the compounds was assessed in an in vitro assay using the HK-2 cell line, an immortalized proximal tubule cell line derived from a normal human kidney. The endpoint to describe the toxicity of the compounds was the reduction of resazurin correlating with the metabolic activity of the cells.
Cells were cultured in 150 cm^2 flasks in 25 mL supplemented KSF (with 5 ng/mL EGF and 50 μg/mL BPE). Cells were maintained at 70% confluence with a maximum of 25 passages. Day 1: Media was removed and cells were washed with 10 ml DPBS. […] After 1 to 2 minutes incubation, 14 ml media was added to the flask to inactivate the trypsin. The cell suspension was transferred to a centrifuge tube and the cells pelleted at 1000 rpm for 6 minutes. The cell pellet was then resuspended in fresh media supplemented with EGF and BPE. […] 7500 cells were dispensed in each well in a volume of 160 μl and incubated at 37° C. for 24 h.
Day 2: Test compounds were prepared directly into the media. […] The microtiter plates were removed from the incubator and the media replaced with 100 μl of the dilutions of the compound solution. Every set of concentration was done in triplicate, and positive and negative controls were added to each plate. The plates were then incubated for 24 h at 37° C. with 5% CO2 in a humidified atmosphere.
Day 3: The reagent containing the resazurin (CellTiter-Blue, Promega) was diluted in PBS (1:4) and added at 20% (v/v) to each well. The plates were then incubated at 37° C. for 2 h before the fluorescent reduction product was detected.
Media only background values were subtracted before the data was analysed using GraphPad Prism. Compound concentration values were plotted as log values to enable a dose-response curve to be fitted and IC50 values determined (Table 7).
The renal cell toxicity of the additional example compounds was assessed in an in vitro assay using the HK-2 cell as described in the example above.

E. coli ATCC700928 = experiment: MIC susceptibility testing, broth microdilution in CaMHB; type: cell-based, Escherichia coli; conditions: Table 4A, different batches of cation-adjusted Muller-Hinton broth
Method in brief: as §1

E. coli NCTC12900 = experiment: as above; type: cell-based, Escherichia coli; conditions: Table 4A, different batches of cation-adjusted Muller-Hinton broth
Method in brief: as §1

E. coli NCTC9001 = experiment: as above; type: cell-based, Escherichia coli; conditions: Table 4A, different batches of cation-adjusted Muller-Hinton broth
Method in brief: as §1

P. aeruginosa ATCC 9721 = experiment: as above; type: cell-based, Pseudomonas aeruginosa; conditions: P. aeruginosa ATCC9721; Table 4A, different batches of cation-adjusted Muller-Hinton broth
Method in brief: as §1

P. aeruginosa ATCC10145 = experiment: as above; type: cell-based, Pseudomonas aeruginosa; conditions: Table 4A, different batches of cation-adjusted Muller-Hinton broth
Method in brief: as §1

[1] = tested on: P. aeruginosa ATCCCRM-9027; experiment: as above; type: cell-based, Pseudomonas aeruginosa; conditions: P. aeruginosa AATCCRM 9027; Table 4A, different batches of cation-adjusted Muller-Hinton broth
Method in brief: as §1

K. pneumoniae NCTC7427 = experiment: as above; type: cell-based, Klebsiella pneumoniae; conditions: Table 4A, different batches of cation-adjusted Muller-Hinton broth
Method in brief: as §1

K. pneumoniae NCTC8172 = experiment: as above; type: cell-based, Klebsiella pneumoniae; conditions: Table 4A, different batches of cation-adjusted Muller-Hinton broth
Method in brief: as §1

A. baumannii ATCCBAA-747 = experiment: as above; type: cell-based, Acinetobacter baumannii; conditions: Table 4A, different batches of cation-adjusted Muller-Hinton broth
Method in brief: as §1

A. baumannii NCTC13423 = experiment: as above; type: cell-based, Acinetobacter baumannii; conditions: Table 4A, different batches of cation-adjusted Muller-Hinton broth
Method in brief: as §1

A. baumannii NCTC7844 = experiment: as above; type: cell-based, Acinetobacter baumannii; conditions: Table 4A, different batches of cation-adjusted Muller-Hinton broth
Method in brief: as §1

[2] = tested on: A. baumannii clinical isolates and resistant strains; type: cell-based; conditions: A. baumannii
Method: (§2) The in vitro antibacterial activities of the compounds of examples 2 and 6 were evaluated against a panel of […] Gram-negative bacterial isolates alongside Colistin. The panel consisted of 100 clinical isolates of each of A. baumannii, E. coli, K. pneumoniae and P. aeruginosa. The panel represented the current epidemiology in Europe and the USA and included a number of relevant strains with defined resistant phenotypes to current clinically-used antibacterial agents. These resistant strains included 20 A. baumannii, 22 E. coli, 25 K. pneumoniae and 20 P. aeruginosa strains.
(§3) All compounds were tested up to a maximum concentration of 64 μg/mL with the exception of colistin, which was evaluated up to a maximum concentration of 16 μg/mL.

[3] = tested on: E. coli clinical isolates and resistant strains; type: cell-based; conditions: E. coli
Method: as §2, §3

[4] = tested on: K. pneumoniae clinical isolates and resistant strains; type: cell-based; conditions: K. pneumoniae
Method: as §2, §3

[5] = tested on: P. aeruginosa clinical isolates and resistant strains; type: cell-based; conditions: P. aeruginosa
Method: as §2, §3

[6] = tested on: Klebsiella pneumoniae ATCC10031; type: in vivo; conditions: neutropenic mice, thigh, K. pneumoniae ATCC10031, total daily dosage 10 mg/Kg; Table 5B
Method: Groups of 5 female specific-pathogen-free CD-1 mice weighing 22±2 g were used. The animals were made neutropenic by intraperitoneal administration of cyclophosphamide on days −4 (150 mg/kg) and −1 (100 mg/kg). […] Examples 2, 4, 5, 6, 7, 8, 10, 11 and polymyxin B were prepared in Normal Saline at 2 mg/mL and the solution was adjusted to pH 6-7 by addition of 0.1M H2SO4 or 4.2% NaHCO3 as required. Twenty-four hours after infection, the mice were euthanized humanely. The muscle of the right thigh of each animal was harvested, homogenized, serially diluted and plated on Brain Heart Infusion agar+0.5% charcoal (w/v) for CFU determination. Decrease of the total CFU of right thigh as compared to control counts at 24 hrs post-infection was determined for each dose group. […] Using the same procedure as described above, the in vivo efficacy of three compounds of the invention (Examples 2,6, and 14) was evaluated in a mouse thigh infection model of Klebsiella pneumoniae ATCC10031, using Colistin (Polymyxin E) as comparator.

For `CC(C)C[C@@H]1NC(=O)[C@@H](Cc2ccccc2)NC(=O)[C@H](CCN)NC(=O)[C@@H](NC(=O)[C@H](CCN)NC(=O)[C@@H](NC(=O)CC(C)O)C(C)O)CCNC(=O)[C@H](C(C)O)NC(=O)[C@H](CCN)NC(=O)[C@H](CCN)NC1=O` (stereo partly drawn) [Example 22, 3-(R,S)-3-Hydroxybutanoyl polymyxin B nonapeptide] ({Butanoyl(3ξ-OH)}-[Thr(3ξ)][Dab][Dab][Dab][dF]L[Dab][Dab][Thr(3ξ)]; lactam 3-C), the MIC (E. coli ATCC25922) was 4 micrograms/mL, the MIC (P. aeruginosa ATCC27853) was 0.5 micrograms/mL and the MIC (K. pneumoniae ATCC 4352) was 8 micrograms/mL. For the same compound, the MIC (A. baumannii ATCC19606) was over 32 micrograms/mL and the “IC50 HK-2 cells” value (HK-2 cell line) was 500^c μg/mL.
Colistin [reference compound] gave an MIC (E. coli ATCC25922) of 1 micrograms/mL, an MIC (E. coli ATCC700928) of 0.25 micrograms/mL and an MIC (E. coli NCTC12900) of 0.5 micrograms/mL. The MIC (E. coli NCTC9001) was 2 micrograms/mL, the MIC (P. aeruginosa ATCC 9721) was 0.5 micrograms/mL and the MIC (P. aeruginosa ATCC10145) was 0.5 micrograms/mL. It also gave an MIC (P. aeruginosa ATCC27853) of 0.5 micrograms/mL, an MIC [1] of 0.5 micrograms/mL and an MIC (K. pneumoniae ATCC 4352) of 0.125 micrograms/mL. It also gave an MIC (K. pneumoniae NCTC7427) of 0.25 micrograms/mL, an MIC (K. pneumoniae NCTC8172) of 0.5 micrograms/mL and an MIC (A. baumannii ATCCBAA-747) of 0.25 micrograms/mL. For the same compound, the MIC (A. baumannii NCTC13423) was under 0.06 micrograms/mL, the MIC (A. baumannii NCTC7844) was 0.125 micrograms/mL and the “MIC50 Clinical isolates” value ([2]; clinical isolates) was 2 µg/mL. The “MIC90 Clinical isolates” value ([2]; clinical isolates) was 2 µg/mL, the “MIC Range Clinical isolates” value ([2]; clinical isolates) was 0.5 to 4 µg/mL and the “MIC50 Resistant strains” value ([2]; resistant strains) was 2 µg/mL. For the same compound, the “MIC90 Resistant strains” value ([2]; resistant strains) was 2 µg/mL, the “MIC Range Resistant strains” value ([2]; resistant strains) was 1 to 4 µg/mL and the “MIC50 Clinical isolates” value ([3]; clinical isolates) was 2 µg/mL. The “MIC90 Clinical isolates” value ([3]; clinical isolates) was 2 µg/mL, the “MIC Range Clinical isolates” value ([3]; clinical isolates) was 0.5 to 4 µg/mL and the “MIC50 Resistant strains” value ([3]; resistant strains) was 1 µg/mL. For the same compound, the “MIC90 Resistant strains” value ([3]; resistant strains) was 1 µg/mL, the “MIC Range Resistant strains” value ([3]; resistant strains) was 0.25 to 2 µg/mL and the “MIC50 Clinical isolates” value ([4]; clinical isolates) was 2 µg/mL. For the same compound, the “MIC90 Clinical isolates” value ([4]; clinical isolates) was 4 µg/mL, the “MIC Range Clinical isolates” value ([4]; clinical isolates) was 1 to 16 µg/mL and the “MIC50 Resistant strains” value ([4]; resistant strains) was 2 µg/mL. The “MIC90 Resistant strains” value ([4]; resistant strains) was 8 µg/mL, the “MIC50 Clinical isolates” value ([5]; clinical isolates) was 2 µg/mL and the “MIC90 Clinical isolates” value ([5]; clinical isolates) was 4 µg/mL. For the same compound, the “MIC Range Clinical isolates” value ([5]; clinical isolates) was 0.25 to 4 µg/mL, the “MIC50 Resistant strains” value ([5]; resistant strains) was 2 µg/mL and the “MIC90 Resistant strains” value ([5]; resistant strains) was 2 µg/mL. The “MIC Range Resistant strains” value ([5]; resistant strains) was 0.5 to 2 µg/mL, the “Mean log10 CFU reduction vs. control” value [6] was 2.60 log10 CFU and the “IC50 HK-2 cells” value (HK-2 cell line) was 28^a μg/mL.

— US9234006B2, “Compounds” (Novacta Biosystems Limited, priority 2011, dated 2016)
